Source: US20190308988A1, “OPIOID RECEPTOR ANTAGONIST PRODRUGS” (Nirsum Laboratories, Inc., priority 2017, published 2019)
In brackets after ≈: the same amount, converted by molar mass. Counter-ions that a name gives are not always drawn. Like-named read-outs stand apart in the source and are kept apart here.

Experiments:
[1] = Rat pharmacokinetic studies, intramuscular administration; assay type: in vivo, male Sprague Dawley Rats; settings: for AUC(0-inf): read-out: AUC0-inf (ng · h/mL) prodrug
Experimental: The purpose of this study is to determine the pharmacokinetics of test compounds in plasma, following intramuscular administration to male Sprague Dawley Rats (n=3, unless otherwise specified).
The dose formulation of 400 mg base equivalents/ml in sesame oil+1% benzyl alcohol (unless otherwise specified) was administered by intramuscular injection. The dose volume was determined by the animals' body weight determined on the morning of dosing day.
Each collected blood sample was centrifuged for 4 minutes at 4° C. and 10000 rpm for plasma collection. Plasma was collected and transferred into a pre-labeled PP tube in dry ice at each time point and precipitated immediately using ACN at a ratio of 1:4 (plasma:ACN). Centrifuged again (10 minutes, 12000 rpm) and obtain the supernatant.
LC-MS/MS methods for the quantitative determination of test compound in biological matrix were developed. […] The sample analysis was performed concurrently with a set of calibration standards and two sets of QC samples using the LC-MS/MS method.
Plasma concentration versus time data was analyzed by non-compartmental approaches using the Phoenix WinNonlin 6.3 software program. Cmax, Tmax, T1/2, AUC(0-t), AUC(0-inf), MRT(0-t), MRT(0-inf) and graphs of plasma concentration versus time profile were prepared.

MOR = target: T1, MOR (Homo sapiens, UniProt P35372); test: Opioid receptor binding assay, MOR ([3H]DAMGO)
T1 construct: expressed in transfected cells
T1 sequence (P35372 whole entry): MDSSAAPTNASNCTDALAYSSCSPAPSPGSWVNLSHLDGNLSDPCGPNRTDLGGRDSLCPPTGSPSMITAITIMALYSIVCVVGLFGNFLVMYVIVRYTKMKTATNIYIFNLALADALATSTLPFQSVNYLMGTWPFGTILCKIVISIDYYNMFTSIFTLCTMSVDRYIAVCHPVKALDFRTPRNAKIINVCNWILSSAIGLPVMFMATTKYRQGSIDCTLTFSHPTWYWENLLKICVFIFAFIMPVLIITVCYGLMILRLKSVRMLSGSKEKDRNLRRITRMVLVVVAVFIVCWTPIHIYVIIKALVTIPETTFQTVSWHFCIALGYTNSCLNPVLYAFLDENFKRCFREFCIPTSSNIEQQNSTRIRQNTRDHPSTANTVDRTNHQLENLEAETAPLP
Experimental: (§1) Receptor binding assays were performed to assess the ability of compounds to inhibit binding to radiolabeled ligand.
(§2) The stable cell lines were established and prepared cell membrane obtained using these cell lines.
(§3) 1) Transfer 1 μl of specified concentration compound to assay plate according to the plate map for nonspecific binding. Transfer 1 μl of DMSO to assay plate according to plate map for total binding. 2) Follow the plate map. Dispense 99 μl of membrane stocks into the plate. 3) Add 100 μl of radio ligand. 4) Seal the plates. Incubate at RT for 1 hour. 5) Soak the Unifilter-96 GF/C filter plates with 50 μl of 0.3% PEI per well for at least 0.5 hour at room temperature. 6) When binding assays are completed, filter the reaction mixture through GF/C plates using Perkin Elmer Filtermate Harvester, and then wash each plate for 4 times with cold wash buffer. 7) Dry the filter plates for 1 hour at 50 degrees. 8) After drying, seal the bottom of the filter plate wells using Perkin Elmer Unifilter-96 backing seal tape. Add 50 μl of Perkin Elmer Microscint 20 cocktail. Seal top of filter plates with Perkin Elmer TopSeal-A sealing film. 9) Count ^3H trapped on filter using Perkin Elmer MicroBeta2 Reader second day. 10) Analyze the data with GraphPad Prism 5. Calculate the “Inhibition [% Control]” using the equation: % Inh=(1−Background subtracted Assay value/Background subtracted HC value)*100.

DOR = target: T2, DOR (Homo sapiens, UniProt P41143); test: Opioid receptor binding assay, DOR ([3H]-DADLE)
T2 construct: expressed in transfected cells
T2 sequence (P41143 whole entry): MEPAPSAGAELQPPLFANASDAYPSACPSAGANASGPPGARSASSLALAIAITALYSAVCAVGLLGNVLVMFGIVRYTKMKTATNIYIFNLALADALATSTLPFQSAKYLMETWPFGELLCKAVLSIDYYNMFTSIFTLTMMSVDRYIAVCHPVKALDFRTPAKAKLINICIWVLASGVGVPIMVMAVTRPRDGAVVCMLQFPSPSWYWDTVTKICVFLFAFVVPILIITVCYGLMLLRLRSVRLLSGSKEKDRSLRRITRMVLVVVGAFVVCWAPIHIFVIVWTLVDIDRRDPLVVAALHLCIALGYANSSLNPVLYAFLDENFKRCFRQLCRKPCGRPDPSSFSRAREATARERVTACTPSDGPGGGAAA
Experimental: as §1, §2, §3

KOR = target: T3, KOR (Homo sapiens, UniProt P41145); test: Opioid receptor binding assay, KOR ([3H]Diprenorphine)
T3 construct: expressed in transfected cells
T3 sequence (P41145 whole entry): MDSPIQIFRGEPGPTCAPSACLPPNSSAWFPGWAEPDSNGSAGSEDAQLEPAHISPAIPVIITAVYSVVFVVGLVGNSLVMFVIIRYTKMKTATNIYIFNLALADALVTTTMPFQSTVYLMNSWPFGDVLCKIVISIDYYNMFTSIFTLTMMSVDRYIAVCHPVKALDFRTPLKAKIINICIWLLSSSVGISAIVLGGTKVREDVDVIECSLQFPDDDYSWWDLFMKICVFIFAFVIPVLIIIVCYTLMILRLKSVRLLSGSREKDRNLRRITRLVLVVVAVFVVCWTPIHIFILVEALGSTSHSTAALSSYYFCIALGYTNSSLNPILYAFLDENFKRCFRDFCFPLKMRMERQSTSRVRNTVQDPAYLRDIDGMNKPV
Experimental: as §1, §2, §3

[2] = Solubility determination in oil (Table 10); settings: thermodynamic from solid; for solubility at 24 h: 25 °C, Obs. Temp. 25 °C; for solubility thermodynamic / solubility: 40 °C, Obs. Temp. 40 °C; for solubility thermodynamic: water, Equilibrium solubility: Water
Experimental: A known amount of test substance (˜40 mg) was weighed into the vial, 100 μL of oil was added and heated to 60° C. and then system was slurried to reach equilibrium. […] Extra oil was added into the vial once compound precipitated out and then the system was re-equilibrated at 1000 rpm at room temperature (25° C.). Final concentration was determined by HPLC method as described below in Table 6a and 6b.

[3] = male, Sprague Dawley, rat, plasma, intramuscular, 0.8 mg/kg
[4] = oil or lipid, Approximate Solubility in Excipient: Cottonseed oil, Heating Temp. 60 °C
[5] = oil or lipid, Approximate Solubility in Excipient: Sesame oil, Heating Temp. 60 °C

Row | SMILES | IC50 (MOR) [nM] | IC50 (DOR) [nM] | IC50 (KOR) [nM] | solubility at 24 h [2, 4] [mg/mL] | solubility at 24 h [2, 5] [mg/mL] | solubility thermodynamic ([2]; Heating Temp. 40 °C) [mg/mL] | also measured
1 | C=C1CC[C@@]2(O)[C@H]3Cc4ccc(O)c5c4[C@@]2(CCN3CC2CC2)[C@H]1O5 [nalmefene HCL, reference compound] |  |  |  |  |  |  | concentration at 1 h [1, 3]: 29.4 ng/mL; concentration at 2 h [1, 3]: 2.09 ng/mL; concentration at 4 h [1, 3]: 0.212 ng/mL; concentration at 8 h [1, 3]: 0.0178 ng/mL
2 | C=C1CC[C@@]2(O)C3Cc4ccc(OC(=O)OCCCCCCCCCCCCCCC)c5c4[C@@]2(CCN3CC2CC2)[C@H]1O5 [Compound 32, (4aS,7aS,12bS)-3-(cyclopropylmethyl)-4a-hydroxy-7-methylene-2,3,4,4a,5,6,7,7a-octahydro-1H-4,12-methanobenzofuro[3,2-e]isoquinolin-9-yl pentadecyl carbonate] | 17.4 | > 10000 | 2120 | > 396 | > 410 | 0.0328 (≈ 0.0552 mM) | 
3 | CCCCCCCCOC(=O)Oc1ccc2c3c1O[C@H]1C(=O)CC[C@@]4(O)C(C2)N(CC2CC2)CC[C@]314 [Compound 23, (4aS,7aR,12bS)-3-(cyclopropylmethyl)-4a-hydroxy-7-oxo-2,3,4,4a,5,6,7,7a-octahydro-1H-4,12-methanobenzofuro[3,2-e]isoquinolin-9-yl octyl carbonate] | 2.8 | 107 | 11.7 | > 408 | > 424 |  | solubility [2, 4]: > 412 mg/mL; solubility ([2]; organic solvent or mixture, Approximate Solubility in Excipient: Ethanol, Heating Temp. 60 °C): > 419 mg/mL; solubility thermodynamic ([2]; Heating Temp. 60 °C): 0.0094 mg/mL (≈ 0.0189 mM)
4 | C=C1CC[C@@]2(O)C3Cc4ccc(OCOC(=O)CCCCCCCCCCC)c5c4[C@@]2(CCN3CC2CC2)[C@H]1O5 [Compound 44, (((4aS,7aS,12bS)-3-(cyclopropylmethyl)-4a-hydroxy-7-methylene-2,3,4,4a,5,6,7,7a-octahydro-1H-4,12-methanobenzofuro[3,2-e]isoquinolin-9-yl)oxy)methyl dodecanoate] | 3.03 | 190 | 18.4 | > 407 | 208 to 231 (≈ 377 to 419 mM) | < 0.001 | 
5 | C=C1CC[C@@]2(O)C3Cc4ccc(OCOC(=O)CCCCCCCCCCCCCCC)c5c4[C@@]2(CCN3CC2CC2)[C@H]1O5 [Compound 46, (((4aS,7aS,12bS)-3-(cyclopropylmethyl)-4a-hydroxy-7-methylene-2,3,4,4a,5,6,7,7a-octahydro-1H-4,12-methanobenzofuro[3,2-e]isoquinolin-9-yl)oxy)methyl hexadecanoate] | 4.52 | 1360 | 33.9 | > 396 | 202 to 269 (≈ 332 to 443 mM) | < 0.001 | 
6 | C=C1CC[C@@]2(O)C3Cc4ccc(OC(=O)OCCCCCCCCCCCCC)c5c4[C@@]2(CCN3CC2CC2)[C@H]1O5 [Compound 30, (4aS,7aS,12bS)-3-(cyclopropylmethyl)-4a-hydroxy-7-methylene-2,3,4,4a,5,6,7,7a-octahydro-1H-4,12-methanobenzofuro[3,2-e]isoquinolin-9-yl tridecyl carbonate] | 9 | 1850 | 88.7 | 252 to 404 (≈ 446 to 714 mM) | 253 to 399 (≈ 446 to 704 mM) | < 0.001 | 
7 | C=C1CC[C@@]2(O)C3Cc4ccc(OCOC(=O)OCCCCCCCCCCCCCCCC)c5c4[C@@]2(CCN3CC2CC2)[C@H]1O5 [Compound 34, (((4aS,7aS,12bS)-3-(cyclopropylmethyl)-4a-hydroxy-7-methylene-2,3,4,4a,5,6,7,7a-octahydro-1H-4,12-methanobenzofuro[3,2-e]isoquinolin-9-yl)oxy)methyl hexadecyl carbonate] | 12.5 | > 10000 | 1770 | > 404 | > 405 | < 0.001 | 
8 | C=C1CC[C@@]2(O)[C@H]3Cc4ccc(O)c5c4[C@@]2(CCN3CC2CC2)[C@H]1O5.Cl [Nalmefene HCl - IR] |  |  |  |  |  |  | AUC0-inf (ng · h/mL) nalmefene ([1]; 0.80 mg/kg, saline): 66.0 ng·h/mL; Terminal Half-life t1/2 (hour) nalmefene ([1]; 0.80 mg/kg, saline): 0.87 h
9 | CCCCCCCCCCCCOC(=O)OCOc1ccc2c3c1O[C@H]1C(=O)CC[C@@]4(O)C(C2)N(CC2CC2)CC[C@]314 [Compound 29, (((4aS,7aR,12bS)-3-(cyclopropylmethyl)-4a-hydroxy-7-oxo-2,3,4,4a,5,6,7,7a-octahydro-1H-4,12-methanobenzofuro[3,2-e]isoquinolin-9-yl)oxy)methyl dodecyl carbonate] |  |  |  | > 410 | > 416 | < 0.001 | AUC(0-inf) ([1]; male, Sprague Dawley, rat, plasma, im, 165 mg/kg, Sesame oil + 1% Benzyl Alcohol): 74.8 ng·h/mL
10 | C=C1CC[C@@]2(O)C3Cc4ccc(OCOC(=O)OCCCCCCCCCCCCCC)c5c4[C@@]2(CCN3CC2CC2)[C@H]1O5 [Compound 25, (((4aS,7aS,12bS)-3-(cyclopropylmethyl)-4a-hydroxy-7-methylene-2,3,4,4a,5,6,7,7a-octahydro-1H-4,12-methanobenzofuro[3,2-e]isoquinolin-9-yl)oxy)methyl tetradecyl carbonate] | 5 | 9540 | 889 | > 414 | > 404 | < 0.001 | 
11 | C=C1CC[C@@]2(O)C3Cc4ccc(OC(=O)CCCCCCCCCCC)c5c4[C@@]2(CCN3CC2CC2)[C@H]1O5 [Compound 59, (4aS,7aS,12bS)-3-(cyclopropylmethyl)-4a-hydroxy-7-methylene-2,3,4,4a,5,6,7,7a-octahydro-1H-4,12-methanobenzofuro[3,2-e]isoquinolin-9-yl dodecanoate, reference compound] |  |  |  |  |  |  | AUC(0-inf) ([1]; male, Sprague Dawley, rat, plasma, im, 17 mg/kg, Sesame oil + 1% Benzyl Alcohol): 10.4 ng·h/mL; half-life ([1]; male, Sprague Dawley, rat, plasma, im, 17 mg/kg, Sesame oil + 1% Benzyl Alcohol, read-out: Half-life t1/2 (hour) prodrug (converted)): 15.2 h
